Blank lines part the entries; values can stand above or below the molecule they belong to. Non-standard residues stand in square brackets, D forms with d. Residues, ends and D or L forms follow the SMILES beside them. No end group written: not given here. pGlu = O=C1CC[C@@H](C(=O)O)N1
Assays:
[1] = tested on: Hdh-TKRL-mediated phosphorylation of ERK1/2; experiment: Western blotting of ERK1/2 phosphorylation in Hdh-TKRL-transfected HEK293 cells; type: cell-based, Human; details: inhibitor 10^-5 M pre-incubated 60 min, then Hdh-TK2-2 for 5 min, western blot
Description: (§1) HEK293 cells were seeded into 6-well plates (0.3 × 10^6 cells/well) and transfected with 3 μg of pcDNA3-HA-Hdh-TKR plasmids or vehicle pcDNA3-HA plasmid as described for the luciferase reporter assays. At 24 h after transfection, the cells were incubated with serum-free DMEM for 6 h at 37°C and then exposed to a PKA inhibitor (H89, 10^-5 M; Sigma-Aldrich) or PKC inhibitor (Gö6983, 10^-5 M; Sigma-Aldrich) for 60 min. After the medium was replace with fresh serum-free DMEM, the cells were exposed to Hdh-TK-2-2 peptide (5×10^-9 or 10^-7 M) or TPA (10^-7 M) for a further 5 min. The methods employed for cell lysate preparation, polyacrylamide gel electrophoresis, protein transfer to nitrocellulose membranes, and membrane washing were from a previous report ([39]). The membranes were incubated with a monoclonal mouse p44/42 MAPK, rabbit phospho-p44/42 MAPK (ERK1/2) (Thr202/Tyr204) (Cell Signaling, Danvers, MA, USA), or mouse GAPDH (Santa Cruz Biotechnology, Santa Cruz, CA, USA) primary antibody at 4°C for 16 h, followed by incubation with goat anti-mouse IgG-HRP or goat anti-rabbit IgG-HRP secondary antibody (Santa Cruz Biotechnology, Santa Cruz, CA, USA) at room temperature for 2 h. […]

[2] = tested on: Hdh-TKRS-mediated phosphorylation of ERK1/2; experiment: Western blotting of ERK1/2 phosphorylation in Hdh-TKRS-transfected HEK293 cells; type: cell-based, Human; details: inhibitor 10^-5 M pre-incubated 60 min, then Hdh-TK2-2 for 5 min, western blot
Description: as §1

Hdh-TKRL [3] = experiment: Ca2+ mobilization assay (aequorin luminescence) in Hdh-TKRL-transfected CHO-K1 cells; type: cell-based, Haliotis discus hannai; details: Hdh-TKRL- and aequorin-expressing CHO-K1 cells; luminescence relative to maximal response at 10^-6 M; n = 3 or 4; read-out: EC50 on intracellular Ca2+ mobilization
Description: (§2) Ca^2+ mobilization assays were performed as described previously ([39]). Briefly, Chinese hamster ovary K1 (CHO-K1) cells were maintained in DMEM-F12 Nutrient Mixture Ham supplemented with 10% FBS (Hyclone) and 1% P/S (Invitrogen) at 37°C in 5% CO2. Cells were grown in a monolayer to 60% confluency in 100 mm dishes (1.5 × 10^6 cells) and transiently transfected with 2 μg of pcDNA3-HA-Hdh-TKR plasmid with 2 μg of a Ca^2+-reporter aequorin plasmid and 2 μg of Gαq plasmid using 18 μL of FuGENE6 transfection reagent (Promega). The cells were washed in assay buffer including phenol red-free DMEM/F-12 with 0.1% bovine serum albumin (BSA) and 1% P/S and collected by brief centrifugation. Probenecid (1.25 mM final concentration, Invitrogen) and coelenterazine (5 μM, Gold Biotech., St. Louis, MO, USA) were added to resuspended CHO-K1 cells in 5 mL of assay buffer and the cells were gently agitated for 2.5 h using a magnetic stirrer at room temperature and shielded from light. […] While stirring gently, 50 μL of the cell suspension was injected into a luminescence microplate reader (Berthold Tech.), and luminescence was recorded for 20 s and for a further 10 s after injection of the assay buffer, including 0.2% Triton X-100 to measure the total Ca^2+ response. […]

Hdh-TKRS [4] = experiment: Ca2+ mobilization assay (aequorin luminescence) in Hdh-TKRS-transfected CHO-K1 cells; type: cell-based, Haliotis discus hannai; details: Hdh-TKRS- and aequorin-expressing CHO-K1 cells; luminescence relative to maximal response at 10^-6 M; n = 3 or 4; read-out: EC50 on intracellular Ca2+ mobilization
Description: as §2

Hdh-TKRL [5] = experiment: CRE-Luc luciferase reporter assay in Hdh-TKRL-expressing HEK293 cells; type: cell-based, Haliotis discus hannai; details: for EC50: HEK293 cells, peptide treatment 6 h, Supplementary Table 4, read-out: EC50 for Hdh-TKRL activation, CRE-Luc reporter
Description: (§3) Human embryonic kidney 293 (HEK293) cells were maintained in Dulbecco’s modified Eagle medium (DMEM; Gibco, Loughborough, UK) containing 10% fetal bovine serum (FBS; Hyclone, GE Healthcare, Chicago, IL, USA) and 1% penicillin/streptomycin (P/S; Invitrogen) at 37°C in 5% CO2. Sixteen hours before transfection, HEK293 cells were seeded into 24-well plates (5 × 10^4 cells/well). Transfection and luciferase activities were analyzed as previously described ([39]). Briefly, HEK293 cells were transfected with 100 ng of pcDNA3-HA expression plasmid containing Hdh-TKR (pcDNA3-HA-Hdh-TKR) or vehicle pcDNA3-HA plasmid using 0.9 μL of a polyethyleneimine transfection reagent (Sigma-Aldrich, St. Louis, MO, USA), along with 100 ng of a luciferase reporter plasmid containing cAMP response element (CRE-Luc) or serum response element (SRE-Luc), and 100 ng of a pRSV-β-galactosidase expression plasmid as an internal control. At 3 h after transfection, the culture medium was replaced by new DMEM with 1% P/S and 10% FBS, and the HEK293 cells were cultured for a further 30 h and then maintained in DMEM without FBS for 16 h. Finally, the HEK293 cells were treated with synthesized peptides, forskolin (Sigma-Aldrich), 12-O-tetradecanoylphorbol-13-acetate (TPA; Sigma-Aldrich), or an equal volume of peptide-free medium (as vehicle control) for 6 h. Luciferase activity was analyzed using a microplate-luminometer (Berthold Tech., Bad Wildbad, Germany) and normalized to the β-galactosidase activity, detected by absorbance at 405 nm using a microplate reader (Tecan, Mannedorf, Switzerland).

Hdh-TKRL [6] = experiment: SRE-Luc luciferase reporter assay in Hdh-TKRL-expressing HEK293 cells; type: cell-based, Haliotis discus hannai; details: for EC50: HEK293 cells, peptide treatment 6 h, Supplementary Table 4, read-out: EC50 for Hdh-TKRL activation, SRE-Luc reporter
Description: as §3

Hdh-TKRS [7] = experiment: CRE-Luc luciferase reporter assay in Hdh-TKRS-expressing HEK293 cells; type: cell-based, Haliotis discus hannai; details: for EC50: HEK293 cells, peptide treatment 6 h, Supplementary Table 3, read-out: EC50 for Hdh-TKRS activation, CRE-Luc reporter
Description: as §3

Hdh-TKRS [8] = experiment: SRE-Luc luciferase reporter assay in Hdh-TKRS-expressing HEK293 cells; type: cell-based, Haliotis discus hannai; details: for EC50: HEK293 cells, peptide treatment 6 h, Supplementary Table 3, read-out: EC50 for Hdh-TKRS activation, SRE-Luc reporter
Description: as §3

[9] = biological target: Hdh-TKRL (tachykinin receptor, long isoform) (Haliotis discus hannai)
[10] = biological target: Hdh-TKRS (tachykinin receptor, short isoform) (Haliotis discus hannai)
[11] = Hdh-TKRL-transfected HEK293 cells, n = 3
[12] = Hdh-TKRS-transfected HEK293 cells, n = 3

Molecule: COc1ccc2c(c1)c(C1=C(c3c[nH]c4ccccc34)C(=O)NC1=O)cn2CCCN(C)C [Gö6983]
effect of inhibitor on Hdh-TKRL-mediated phosphorylation of ERK1/2 [1]: almost abolished
effect of inhibitor on Hdh-TKRS-mediated phosphorylation of ERK1/2 [2]: almost abolished

Molecule: O=S(=O)(NCCNC/C=C/c1ccc(Br)cc1)c1cccc2cnccc12 [H89]
effect of inhibitor on Hdh-TKRL-mediated phosphorylation of ERK1/2 [1]: decreased

Molecule: CC(C)[C@H](NC(=O)CNC(=O)[C@H](Cc1c[nH]cn1)NC(=O)[C@H](Cc1ccccc1)NC(=O)CNC(=O)[C@H](Cc1ccccc1)NC(=O)[C@H](Cc1c[nH]cn1)NC(=O)[C@@H]1CCCN1C(=O)[C@@H]1CCC(=O)N1)C(=O)N[C@@H](CCCNC(=N)N)C(N)=O [Hdh-TK1-3] ([pGlu]PHFGFHGVR-NH2)
EC50 (Hdh-TKRL [3]): 1.1 nM
EC50 (Hdh-TKRS [4]): 1.7 nM
EC50 (Hdh-TKRL [5]): 284 nM
EC50 (Hdh-TKRL [6]): 155 nM
EC50 (Hdh-TKRS [7]): 15.1 nM
EC50 (Hdh-TKRS [8]): 171 nM

Molecule: APGWamide [abalone APGWamide peptide used as a negative control, reference compound]
CRE-Luc reporter activity (in words) (Hdh-TKRL [5]; [11]): did not activate
SRE-Luc reporter activity (in words) (Hdh-TKRL [6]; [11]): did not activate
CRE-Luc reporter activity (in words) (Hdh-TKRS [7]; [12]): did not activate
SRE-Luc reporter activity (in words) (Hdh-TKRS [8]; [12]): did not activate

Molecule: FGYVGSR-NH2 [Hdh-TK1-1]
EC50 of intracellular Ca2+ mobilization (aequorin luminescence) in Hdh-TKRL-transfected CHO-K1 cells [9]: 9.4 nM
EC50 of intracellular Ca2+ mobilization (aequorin luminescence) in Hdh-TKRS-transfected CHO-K1 cells [10]: 14.7 nM

Molecule: TELGFGYVGSR-NH2 [Hdh-TK1-2]
EC50 of intracellular Ca2+ mobilization (aequorin luminescence) in Hdh-TKRL-transfected CHO-K1 cells [9]: 32 nM
EC50 of intracellular Ca2+ mobilization (aequorin luminescence) in Hdh-TKRS-transfected CHO-K1 cells [10]: 46 nM

The next lines start with the values.

EC50 (Hdh-TKRL [3]): 5.2 nM
EC50 (Hdh-TKRS [4]): 4 nM
EC50 (Hdh-TKRL [5]): 1100 nM
EC50 (Hdh-TKRL [6]): 141 nM
EC50 (Hdh-TKRS [7]): 180 nM
EC50 (Hdh-TKRS [8]): 3340 nM
Molecule: CC(C)[C@H](NC(=O)[C@H](Cc1ccccc1)NC(=O)CNC(=O)[C@H](Cc1ccccc1)NC(=O)[C@H](Cc1c[nH]cn1)NC(=O)[C@H](CCCNC(=N)N)NC(=O)CN)C(=O)NCC(=O)N[C@@H](CO)C(=O)N[C@@H](CCCNC(=N)N)C(N)=O [Hdh-TK2-1] (H-GRHFGFVGSR-NH2)

EC50 of intracellular Ca2+ mobilization (aequorin luminescence) in Hdh-TKRL-transfected CHO-K1 cells [9]: 5.2 nM
EC50 of intracellular Ca2+ mobilization (aequorin luminescence) in Hdh-TKRS-transfected CHO-K1 cells [10]: 4 nM
Molecule: GRHFGFVGSR-NH2 [Hdh-TK2-1]

EC50 of intracellular Ca2+ mobilization (aequorin luminescence) in Hdh-TKRL-transfected CHO-K1 cells [9]: 0.7 nM
EC50 of intracellular Ca2+ mobilization (aequorin luminescence) in Hdh-TKRS-transfected CHO-K1 cells [10]: 1.2 nM
Molecule: KPHFGFHGSR-NH2 [Hdh-TK2-2]

EC50 of intracellular Ca2+ mobilization (aequorin luminescence) in Hdh-TKRL-transfected CHO-K1 cells [9]: 1.1 nM
EC50 of intracellular Ca2+ mobilization (aequorin luminescence) in Hdh-TKRS-transfected CHO-K1 cells [10]: 1.7 nM
B1: Hdh-TK1-3 (peptide)
peptide: [pGlu]PHFGFHGVR-NH2
SMILES: CC(C)[C@H](NC(=O)CNC(=O)[C@H](Cc1c[nH]cn1)NC(=O)[C@H](Cc1ccccc1)NC(=O)CNC(=O)[C@H](Cc1ccccc1)NC(=O)[C@H](Cc1c[nH]cn1)NC(=O)[C@@H]1CCCN1C(=O)[C@@H]1CCC(=O)N1)C(=O)N[C@@H](CCCNC(=N)N)C(N)=O
